For this test, the target named is T1, human TRPM8 (Homo sapiens, UniProt Q7Z2W7).
T1 construct: expressed in transfected cells; host or cells: Chinese hamster ovary (CHO) cells, T-REx tetracycline-inducible expression system (Invitrogen), co-transfected with pcDNA3.1 jellyfish aequorin
Kind of test: Luminescence readout assay for measuring intracellular calcium (aequorin), hTRPM8 antagonism. Type of test: cell-based. As to conditions: CHO cell line expressing human TRPM8 and aequorin; activation by icilin, L-menthol or cold buffer (table does not say which). The protocol:
Luminescence Readout Assay for Measuring Intracellular Calcium.
A stable Chinese hamster ovary cell line expressing human TRPM8 was generated using tetracycline inducible T-REx™ expression system from Invitrogen, Inc. (Carlsbad, Calif.). […] Twenty four hours before the assay, cells were seeded in 96-well plates and TRPM8 expression was induced with 0.5 μg/mL tetracycline. […] Potential antagonists were added 2.5 min prior to the addition of agonist, […], 100 µM L-menthol, or 1 min prior to the addition of cold buffer (<10° C.). The luminescence was measured by a CCD camera based FLASH-luminometer built by Amgen, Inc. A cooling device attached to FLASH luminometer was used for cold activation.
Background: Calcium assays in cells follow changes in intracellular calcium, usually with a dye or a luminescent sensor.

30 compounds from patent US8778941B2, “TRPM8 antagonists and their use in treatments” (AMGEN Inc., priority 2011, dated 2014) can be followed below.

T1 sequence (Q7Z2W7 whole entry): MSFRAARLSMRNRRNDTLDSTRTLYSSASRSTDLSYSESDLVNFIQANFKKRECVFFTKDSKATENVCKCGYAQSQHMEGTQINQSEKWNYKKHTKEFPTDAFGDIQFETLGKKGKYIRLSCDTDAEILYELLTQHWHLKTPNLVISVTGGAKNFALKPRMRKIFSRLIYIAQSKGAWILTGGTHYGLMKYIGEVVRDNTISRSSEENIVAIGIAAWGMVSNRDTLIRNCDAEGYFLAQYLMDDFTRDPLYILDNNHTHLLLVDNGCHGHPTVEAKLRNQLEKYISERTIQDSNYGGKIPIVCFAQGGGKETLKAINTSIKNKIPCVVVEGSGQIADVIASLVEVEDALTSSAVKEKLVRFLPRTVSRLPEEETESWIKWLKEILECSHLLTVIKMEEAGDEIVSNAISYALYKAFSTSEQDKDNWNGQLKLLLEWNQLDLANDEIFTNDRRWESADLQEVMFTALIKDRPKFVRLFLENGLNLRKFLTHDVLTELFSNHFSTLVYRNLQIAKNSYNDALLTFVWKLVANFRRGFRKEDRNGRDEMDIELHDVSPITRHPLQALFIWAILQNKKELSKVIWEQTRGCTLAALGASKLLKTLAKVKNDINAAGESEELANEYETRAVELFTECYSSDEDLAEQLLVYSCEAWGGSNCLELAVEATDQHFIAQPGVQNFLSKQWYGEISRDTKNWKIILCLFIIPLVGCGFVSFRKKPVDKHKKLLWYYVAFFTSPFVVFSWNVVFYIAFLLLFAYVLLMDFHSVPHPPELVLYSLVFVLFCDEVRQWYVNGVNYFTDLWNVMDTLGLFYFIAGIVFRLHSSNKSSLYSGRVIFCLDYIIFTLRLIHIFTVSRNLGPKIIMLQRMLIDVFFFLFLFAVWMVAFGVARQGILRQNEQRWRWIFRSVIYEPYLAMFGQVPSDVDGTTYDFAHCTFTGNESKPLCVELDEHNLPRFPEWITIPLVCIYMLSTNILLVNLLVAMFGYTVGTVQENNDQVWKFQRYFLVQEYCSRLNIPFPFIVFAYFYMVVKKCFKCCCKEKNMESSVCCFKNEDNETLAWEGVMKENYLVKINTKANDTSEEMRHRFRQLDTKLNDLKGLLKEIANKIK

By IC50 is commonly meant the point on the concentration scale where inhibition reaches its midpoint. For `O=C(NCCc1ccc2c(c1)OCO2)N[C@@H](c1ccc(C(F)(F)F)cc1)c1ncccc1C(F)(F)F` [Example 36, (S)-1-(2-(benzo[d][1,3]dioxol-5-yl)-ethyl)-3-((4-(trifluoro-methyl)-phenyl)(3-(trifluoro-methyl)-pyridin-2-yl)-methyl)urea (2,2,2-trifluoro-acetate)], the IC50 worked out at 0.39 µM.
Regarding `O=C(Nc1cccc(Br)c1)N[C@@H](c1ccc(C(F)(F)F)cc1)c1ncccc1C(F)(F)F` [Example 37, (S)-1-(3-bromophenyl)-3-((4-(trifluoro-methyl)-phenyl)(3-(trifluoro-methyl)-pyridin-2-yl)-methyl)urea (2,2,2-trifluoro-acetate)], the IC50 turned out to be 4.08 µM.
Turning to `CCOC(=O)CNC(=O)N[C@@H](c1ccc(C(F)(F)F)cc1)c1ncccc1C(F)(F)F` [Example 38, (S)-ethyl 2-(3-((4-(trifluoro-methyl)-phenyl)(3-(trifluoro-methyl)-pyridin-2-yl)-methyl)-ureido)acetate (2,2,2-trifluoro-acetate)], the IC50 is 1.5 µM.
In the case of `O=C(Nc1ccc2occc2c1)N[C@@H](c1ccc(C(F)(F)F)cc1)c1ncccc1C(F)(F)F` [Example 39, (S)-1-(benzofuran-5-yl)-3-((4-(trifluoro-methyl)-phenyl)(3-(trifluoro-methyl)-pyridin-2-yl)-methyl)urea (2,2,2-trifluoro-acetate)] it was 4.09 µM; in that of `CC(C)(C)NC(=O)N[C@@H](c1ccc(C(F)(F)F)cc1)c1ncccc1Br` [Example 41, (S)-1-((3-bromopyridin-2-yl)(4-(trifluoro-methyl)-phenyl)-methyl)-3-(tert-butyl)-urea], 0.122 µM.
Take `CC#Cc1cccnc1[C@@H](NC(=O)NC(C)(C)C)c1ccc(C(F)(F)F)cc1` [Example 42, (S)-1-(tert-butyl)-3-((3-(prop-1-yn-1-yl)pyridin-2-yl)(4-(trifluoro-methyl)-phenyl)-methyl)urea]: the half-maximal inhibitory concentration (IC50) turned out to be 0.107 µM.
The figure for `C=CCc1cccnc1[C@@H](NC(=O)Nc1cccnc1)c1ccc(C(F)(F)F)cc1` [Example 43, (S)-1-((3-allylpyridin-2-yl)(4-(trifluoromethyl)phenyl)-methyl)-3-(pyridin-3-yl)urea] is 0.022 µM; for `CC(C)(C)NC(=O)N[C@@H](c1ccc(C(F)(F)F)cc1)c1ncccc1C(F)(F)F` [Example 45, (S)-1-(tert-butyl)-3-((4-(trifluoro-methyl)-phenyl)(3-(trifluoro-methyl)-pyridin-2-yl)-methyl)urea] it is 0.053 µM.
In the case of `N#Cc1ccc(NC(=O)N[C@@H](c2ccc(C(F)(F)F)cc2)c2ncccc2C(F)(F)F)cc1` [Example 46, (S)-1-(4-cyanophenyl)-3-((4-(trifluoro-methyl)-phenyl)(3-(trifluoro-methyl)-pyridin-2-yl)-methyl)urea], the IC50 is 3.56 µM.
In the case of `O=C(Nc1ccc(F)cc1)N[C@@H](c1ccc(C(F)(F)F)cc1)c1ncccc1C(F)(F)F` [Example 47, (S)-1-(4-fluorophenyl)-3-((4-(trifluoro-methyl)-phenyl)(3-(trifluoro-methyl)-pyridin-2-yl)-methyl)urea] it was 0.098 µM; in that of `O=C(Nc1ccc(F)cc1F)N[C@@H](c1ccc(C(F)(F)F)cc1)c1ncccc1C(F)(F)F` [Example 48, (S)-1-(2,4-difluoro-phenyl)-3-((4-(trifluoro-methyl)-phenyl)(3-(trifluoro-methyl)-pyridin-2-yl)-methyl)urea], 2.28 µM.
In the case of `O=C(Nc1cc(F)cc(F)c1)N[C@@H](c1ccc(C(F)(F)F)cc1)c1ncccc1C(F)(F)F` [Example 49, (S)-1-(3,5-difluoro-phenyl)-3-((4-(trifluoro-methyl)-phenyl)(3-(trifluoro-methyl)-pyridin-2-yul)-methyl)urea] it was 0.558 µM; in that of `O=C(Nc1c(F)cccc1F)N[C@@H](c1ccc(C(F)(F)F)cc1)c1ncccc1C(F)(F)F` [Example 50, (S)-1-(2,6-difluoro-phenyl)-3-((4-(trifluoro-methyl)-phenyl)(3-(trifluoro-methyl)-pyridin-2-yl)-methyl)urea], 0.209 µM; in that of `COc1cccc(NC(=O)N[C@@H](c2ccc(C(F)(F)F)cc2)c2ncccc2C(F)(F)F)c1` [Example 52, (S)-1-(3-methoxy-phenyl)-3-((4-(trifluoro-methyl)-phenyl)(3-(trifluoro-methyl)-pyridin-2-yl)-methyl)urea (2,2,2-trifluoro-acetate)], 0.061 µM.
In the case of `CS(=O)(=O)c1cccc(NC(=O)N[C@@H](c2ccc(C(F)(F)F)cc2)c2ncccc2C(F)(F)F)c1` [Example 53, (S)-1-(3-(methylsulfonyl)phenyl)-3-((4-(trifluoro-methyl)-phenyl)(3-(trifluoro-methyl)-pyridin-2-yl)-methyl)urea] it was 0.05 µM; in that of `O=C(NC1CCCOC1)N[C@@H](c1ccc(C(F)(F)F)cc1)c1ncccc1C(F)(F)F` (stereo partly drawn) [Example 54, 1-(tetrahydro-2H-pyran-3-yl)-3-((S)-(4-(trifluoro-methyl)-phenyl)(3-(trifluoro-methyl)-pyridin-2-yl)-methyl)urea], 0.397 µM.
In the case of `Cc1noc(C)c1NC(=O)N[C@@H](c1ccc(C(F)(F)F)cc1)c1ncccc1C(F)(F)F` [Example 55, (S)-1-(3,5-dimethylisoxazol-4-yl)-3-((4-(trifluoro-methyl)-phenyl)(3-(trifluoro-methyl)-pyridin-2-yl)-metyl)urea], the IC50 came to 0.05 µM.
In the case of `O=C(NC1CCOC1)N[C@@H](c1ccc(C(F)(F)F)cc1)c1ncccc1C(F)(F)F` (stereo partly drawn) [Example 56, 1-(tetrahydrofuran-3-yl)-3-((S)-(4-(trifluoro-methyl)-phenyl)(3-(trifluoro-methyl)-pyridin-2-yl)-methyl)urea], the IC50 stood at 0.676 µM.
`O=C(Nc1cncnc1)N[C@@H](c1ccc(C(F)(F)F)cc1)c1ncccc1C(F)(F)F` [Example 57, (S)-1-(pyrimidin-5-yl)-3-((4-(trifluoro-methyl)-phenyl)(3-(trifluoro-methyl)-pyridin-2-yl)-methyl)urea]: the half-inhibitory concentration (IC50) was found to be 0.167 µM.
Turning to `O=C(Nc1ccc2ncccc2c1)N[C@@H](c1ccc(C(F)(F)F)cc1)c1ncccc1C(F)(F)F` [Example 58, (S)-1-(quinolin-6-yl)-3-((4-(trifluoro-methyl)-phenyl)(3-(trifluoro-methyl)-pyridin-2-yl)-methyl)urea], the IC50 came to 0.562 µM.
The figure for `O=C(Nc1cnc2ccccc2c1)N[C@@H](c1ccc(C(F)(F)F)cc1)c1ncccc1C(F)(F)F` [Example 59, (S)-1-(quinolin-3-yl)-3-((4-(trifluoro-methyl)-phenyl)(3-(trifluoro-methyl)-pyridin-2-yl)-methyl)urea] is 0.64 µM; for `O=C(Nc1ccnc2ccccc12)N[C@@H](c1ccc(C(F)(F)F)cc1)c1ncccc1C(F)(F)F` [Example 60, (S)-1-(quinolin-4-yl)-3-((4-(trifluoro-methyl)-phenyl)(3-(trifluoro-methyl)-pyridin-2-yl)-methyl)urea] it is 0.182 µM.
The figure for `CC(C)(C)Cc1cccnc1[C@@H](NC(=O)Nc1cccnc1)c1ccc(C(F)(F)F)cc1` [Example 62] is 1.93 µM; for `O=C(Nc1c(Br)cc(F)cc1Br)N[C@@H](c1ccc(C(F)(F)F)cc1)c1ncccc1C(F)(F)F` [Example 63, (S)-1-(2,6-dibromo-4-fluorophenyl)-3-((4-(trifluoro-methyl)-phenyl)(3-(trifluoro-methyl)-pyridin-2-yl)-methyl)urea (2,2,2-trifluoro-acetate)] it is 0.866 µM.
As to `O=C(NCC1CCS(=O)(=O)C1)N[C@@H](c1ccc(C(F)(F)F)cc1)c1ncccc1C(F)(F)F` (stereo partly drawn) [Example 64, 1-((3- Sulfonylcyclopentyl)-methyl)-3-((S)-(4-(trifluoro-methyl)-phenyl)(3-(trifluoro-methyl)-pyridin-2-yl)-methyl)urea (2,2,2-trifluoro-acetate)], the IC50 came to 5.65 µM.
As to `CC(C)[C@H](C)NC(=O)N[C@@H](c1ccc(C(F)(F)F)cc1)c1ncccc1C(F)(F)F` [Example 65, 1-((S)-3-methylbutan-2-yl)-3-((S)-(4-(trifluoro-methyl)-phenyl)(3-(trifluoro-methyl)-pyridin-2-yl)-methyl)urea (2,2,2-trifluoro-acetate)], the half-inhibitory concentration (IC50) is 0.141 µM.
Turning to `CCOC(=O)CCNC(=O)N[C@@H](c1ccc(C(F)(F)F)cc1)c1ncccc1C(F)(F)F` [Example 66, (S)-ethyl 3-(3-((4-(trifluoro-methyl)-phenyl)(3-(trifluoro-methyl)-pyridin-2-yl)-methyl)-ureido)-propanoate (2,2,2-trifluoro-acetate)], the half-maximal inhibitory concentration (IC50) came out at 0.905 µM.
In the case of `O=C(NC(=O)c1ccccc1)N[C@@H](c1ccc(C(F)(F)F)cc1)c1ncccc1C(F)(F)F` [Example 67, (S)-N-((4-(trifluoro-methyl)-phenyl)(3-(trifluoro-methyl)-pyridin-2-yl)-methylcarbamoyl) benzamide (2,2,2-trifluoro-acetate)] it was 0.352 µM; in that of `CCOC(=O)CCCNC(=O)N[C@@H](c1ccc(C(F)(F)F)cc1)c1ncccc1C(F)(F)F` [Example 68, (S)-ethyl 4-(3-((4-(trifluoro-methyl)-phenyl)(3-(trifluoro-methyl)-pyridin-2-yl)-methyl)-ureido)-butanoate (2,2,2-trifluoro-acetate)], 0.881 µM; in that of `Cc1noc(-c2ccccc2)c1NC(=O)N[C@@H](c1ccc(C(F)(F)F)cc1)c1ncccc1C(F)(F)F` [Example 69, (S)-1-(3-methyl-5-phenylisoxazol-4-yl)-3-((4-(trifluoro-methyl)-phenyl)(3-(trifluoro-methyl)-pyridin-2-yl)-methyl)urea (2,2,2-trifluoro-acetate)], 0.777 µM.
